Where “and” joins values, the source holds several entries; their conditions need not be identical. Equal entries are not always repeated.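 Tested at 5 concentrations; 48 h exposure; 96-well plates; endpoints linearly interpolated, else capped at highest concentration. GI50: concentration for 50% inhibition of growth. TGI: total growth inhibition.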
Tests used:
Test in all cases: NCI anticancer screen, dose series, 48 h
SF-539 CNS = test system: SF-539 CNS
NCI-H460 lung = test system: NCI-H460 lung
NCI-H23 lung = test system: NCI-H23 lung
SF-268 CNS = test system: SF-268 CNS
SK-MEL-5 melanoma = test system: SK-MEL-5 melanoma
K-562 leukemia = test system: K-562 leukemia
BT-549 breast = test system: BT-549 breast
HOP-92 NSCLC = test system: HOP-92 NSCLC
SN12C renal = test system: SN12C renal
RXF 393 renal = test system: RXF 393 renal

Compound | GI50 (SF-539 CNS) | TGI (SF-539 CNS) | GI50 (NCI-H460 lung) [µM] | TGI (NCI-H460 lung) | GI50 (NCI-H23 lung) [µM] | TGI (NCI-H23 lung) [µM] | GI50 (SF-268 CNS) [µM] | TGI (SF-268 CNS) [µM] | GI50 (SK-MEL-5 melanoma) [µM] | TGI (SK-MEL-5 melanoma) [µM] | GI50 (K-562 leukemia) [µM] | TGI (K-562 leukemia) [µM] | GI50 (BT-549 breast) [µM] | TGI (BT-549 breast) [µM] | GI50 (HOP-92 NSCLC) [µM] | TGI (HOP-92 NSCLC) [µM] | GI50 (SN12C renal) | TGI (SN12C renal) [µM] | TGI (RXF 393 renal) [µM] | GI50 (RXF 393 renal) [µM]
CN(C)c1ccccc1[CH2][Ga]([Cl])[CH2]c1ccccc1N(C)C | 1.7 µM | 3.5 µM | 1.76 | 3.58 µM | 0.595 | 2.06 | 1.77 | 3.3 | 1.22 | 2.49 | 1.46 | 4.46 | 1.83 | 3.29 | 0.416 | 1.58 | 1.31 µM | 2.58 |  | 
N#CCc1nnc(N)o1 |  | > 100 µM |  |  |  | > 100 |  | > 100 |  |  |  | > 100 |  |  |  | > 100 |  | > 100 |  | 
CC(C)=NNC(=S)NC12CC3CC(CC(C3)C1)C2 |  | > 100 µM |  | > 100 µM |  | > 100 |  | > 100 |  | > 100 |  | > 100 |  |  |  | > 100 |  | > 100 | > 100 | 
Cc1ccc(C2=Nc3ccccc3S(=O)C(c3ccc4c(c3)OCO4)C2)cc1 (configuration not stated) |  | 46.3 µM |  | > 10 µM |  | 48.9 |  | 50.5 |  | 29.2 |  | 98.8 |  |  |  |  |  | 33.5 | 32.1 | 
O=C(O)Cc1ccc(N=Nc2c(O)c(C(=O)O)cc3ccccc23)cc1 |  | > 100 µM |  | > 100 µM |  |  |  | > 100 |  | > 100 |  | > 100 |  | > 100 |  | > 100 |  | > 100 | > 100 | 
COc1ccc2nc3cccc([N+](=O)[O-])c3c(NC(C)CN(C)C)c2c1 (configuration not stated) | 2.66 µM | 6.46 µM | 0.51 | 3.73 µM | 2.1 | 5.33 | 2.64 | 11.9 | 1.18 | 2.49 | 1.56 | 4.03 | 2.86 | 6.74 | 2.38 | 5.68 | 2.67 µM | 9.6 |  | 
Cc1c2c(nn1-c1ccc(S(=O)(=O)NC(=S)NC(=O)c3ccccc3)cc1)-c1ccccc1CC2 |  |  | 45.1 | > 100 µM | 53.9 | > 100 | 29.3 | > 100 | 30.7 | 96.5 | 6.09 | > 100 |  |  | > 100 | > 100 | 34.4 µM | > 100 |  | 
O=C(O)c1c2c(cc3c(=O)cc(-c4ccccc4)oc13)CCCC2 |  | > 100 µM |  | > 100 µM |  | > 100 |  | > 100 |  | > 100 |  | > 100 |  |  |  | > 100 |  | > 100 |  | 
CN1CCN(CCCN2c3ccccc3Sc3ccc(Cl)cc32)CC1 | 7.49 µM and 51.6 µM | 14.6 µM and 87.9 µM |  | 11.4 µM and 80.5 µM |  | 12 | 5.27 | 12 | 48.5 | 62 |  |  | 6.56 | 13.4 | 0.894 | 5.25 | 5.83 µM and 56.8 µM | 12.8 |  | 
COc1ccc(Cn2cc3c(c2-c2cc(OC)c(OC)c(OC)c2)CCc2c(CO)noc2-3)cc1 | 0.213 µM | 0.658 µM | 0.341 | 13.6 µM | 0.612 | 42.1 | 1.58 | 26.5 | 0.334 | 11.9 | 0.313 | > 100 | 0.608 | 7.34 | 2.97 | 22.2 | 0.765 µM | 19.2 |  | 
c1ccc2c(CNCCCCCCCCNCc3cccc4ccccc34)cccc2c1 |  | 3.04 µM |  | 2.8 µM |  | 14.8 |  | 21.4 |  | 3.32 |  | 3.73 |  |  |  | 9.92 |  | 19.2 | 3.13 | 
COc1ccc(-c2[nH]nc(N)c2-c2cc(OC)c(OC)c(OC)c2)cc1 | 0.0246 µM | 0.0665 µM | 0.0363 | > 33.7 µM | 0.0422 | > 32.1 | 0.0756 | 33.3 | 0.0381 | 0.725 | 0.0315 | > 100 | 0.0873 | 4.29 | 0.148 | 19.7 | 0.0716 µM | > 57.4 |  | 
O=[N+]([O-])C=C1c2ccccc2-c2ccccc21 |  | 31.3 µM |  | 38.9 µM |  | 30.4 |  | 36.4 |  |  |  | 6.34 |  |  |  |  |  | 35.7 | 31.3 | 
CCNCCNc1cc(-c2ccc(C(F)(F)F)cc2)c(C#N)c2nc3cc(Cl)c(Cl)cc3n12 | 1.74 µM | 3.23 µM | 1.66 | 3.27 µM | 1.77 | 3.52 | 1.6 | 3.22 | 1.67 | 3.04 | 0.183 | 0.365 |  |  | 1.41 | 2.96 | 1.77 µM | 3.46 | 2.62 | 1.3
CCCCCCCCCCCCCCCCN(CC)CC | 1.67 µM | 3.06 µM | 1.92 | 3.56 µM | 2.83 | 9 | 2.64 | 8.31 | 1.94 | 3.79 |  |  | 1.87 | 3.89 | 1.74 | 3.94 | 2.21 µM | 5.53 | 4.2 | 1.88
CCOC(=O)CN(c1ccccc1)c1nc(=[N+](C)C)ss1 |  | > 100 µM |  |  |  |  |  | > 100 |  |  |  | > 100 |  |  |  |  |  | 36.7 | > 100 | 
COc1cc(O)c2c(c1)C(=O)C1=C(C2=O)C(O)C[C@@](C)(O)C1 (some centres not stated) |  | 5.74 µM |  | 4.96 µM |  | 3.3 |  | 4.47 |  |  |  | 2.46 |  |  |  | 3.57 |  | 2.65 | 3.05 | 
O=C1c2cc(F)ccc2-c2c1c1ccc([N+](=O)[O-])cc1c(=O)n2CCCBr |  |  | 4.56 | > 100 µM | 18.4 | 85.4 | 8.56 | > 100 | 11.7 | 40.3 | 22.4 | > 100 |  |  |  |  | 27.4 µM | > 100 |  | 

Source: PubChem BioAssay (NCI)
